Data from PMC3791872 (Bioscience Reports, 2013).
pIC50: −log10 of the molar value. Where two headings read alike, the source gives them in different places.

Legend:
Mcm2-7 [1] = system: T1, Mcm2-7; assay: Steady-state ATP hydrolysis by Mcm2-7; assay type: biochemical, Saccharomyces cerevisiae; conditions: 1 mM compound, 100 nM hexamer
T1 construct: made in house; host or cells: baculovirus-infected insect cells

[2] = target: SV40 large TAg (T-antigen) (Simian virus 40, UniProt P03070); assay: biochemical; set-up: species or system SV40 (simian virus 40); conditions: DNA unwinding
Sequence of SV40 large TAg (T-antigen) (P03070 whole entry, looked up): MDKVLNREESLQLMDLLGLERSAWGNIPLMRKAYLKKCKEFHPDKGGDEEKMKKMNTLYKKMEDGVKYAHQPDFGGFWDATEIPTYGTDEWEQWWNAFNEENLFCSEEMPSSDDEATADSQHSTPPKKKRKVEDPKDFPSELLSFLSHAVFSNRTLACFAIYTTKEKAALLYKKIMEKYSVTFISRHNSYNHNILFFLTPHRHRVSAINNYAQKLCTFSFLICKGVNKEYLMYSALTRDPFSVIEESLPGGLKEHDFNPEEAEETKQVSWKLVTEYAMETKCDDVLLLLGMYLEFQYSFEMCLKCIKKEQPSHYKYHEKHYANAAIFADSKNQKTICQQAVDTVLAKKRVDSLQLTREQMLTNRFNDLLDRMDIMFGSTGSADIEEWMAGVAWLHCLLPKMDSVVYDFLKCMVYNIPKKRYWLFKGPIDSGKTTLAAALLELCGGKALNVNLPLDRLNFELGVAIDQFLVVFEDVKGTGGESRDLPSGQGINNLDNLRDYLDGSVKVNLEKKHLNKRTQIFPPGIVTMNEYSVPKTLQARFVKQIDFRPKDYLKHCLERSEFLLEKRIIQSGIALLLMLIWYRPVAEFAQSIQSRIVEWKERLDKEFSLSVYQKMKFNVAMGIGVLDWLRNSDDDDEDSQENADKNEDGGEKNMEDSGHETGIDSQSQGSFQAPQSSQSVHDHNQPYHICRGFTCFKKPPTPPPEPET

[3] = system: S. cerevisiae ∆erg6 (UPY675); assay: Yeast growth inhibition, 96-well assay, ∆erg6 strain; assay type: cell-based, Saccharomyces cerevisiae
SV40 large TAg = target: T2, SV40 large TAg (Simian virus 40, UniProt P03070); assay: ssDNA double filter-binding assay, TAg; set-up: species or system SV40 (simian virus 40); conditions: 1 mM compound, 150 nM helicase
T2 construct: made in house
T2 sequence (P03070 whole entry): as the sequence (P03070 whole entry, looked up) above

Mcm467 [4] = target: T3, Mcm467 (Saccharomyces cerevisiae, UniProt P30665+P38132+P53091); assay: ssDNA double filter-binding assay, Mcm467; conditions: 1 mM compound, 150 nM helicase
T3 construct: made in house; host or cells: baculovirus-infected insect cells
T3 sequence (P30665 whole entry): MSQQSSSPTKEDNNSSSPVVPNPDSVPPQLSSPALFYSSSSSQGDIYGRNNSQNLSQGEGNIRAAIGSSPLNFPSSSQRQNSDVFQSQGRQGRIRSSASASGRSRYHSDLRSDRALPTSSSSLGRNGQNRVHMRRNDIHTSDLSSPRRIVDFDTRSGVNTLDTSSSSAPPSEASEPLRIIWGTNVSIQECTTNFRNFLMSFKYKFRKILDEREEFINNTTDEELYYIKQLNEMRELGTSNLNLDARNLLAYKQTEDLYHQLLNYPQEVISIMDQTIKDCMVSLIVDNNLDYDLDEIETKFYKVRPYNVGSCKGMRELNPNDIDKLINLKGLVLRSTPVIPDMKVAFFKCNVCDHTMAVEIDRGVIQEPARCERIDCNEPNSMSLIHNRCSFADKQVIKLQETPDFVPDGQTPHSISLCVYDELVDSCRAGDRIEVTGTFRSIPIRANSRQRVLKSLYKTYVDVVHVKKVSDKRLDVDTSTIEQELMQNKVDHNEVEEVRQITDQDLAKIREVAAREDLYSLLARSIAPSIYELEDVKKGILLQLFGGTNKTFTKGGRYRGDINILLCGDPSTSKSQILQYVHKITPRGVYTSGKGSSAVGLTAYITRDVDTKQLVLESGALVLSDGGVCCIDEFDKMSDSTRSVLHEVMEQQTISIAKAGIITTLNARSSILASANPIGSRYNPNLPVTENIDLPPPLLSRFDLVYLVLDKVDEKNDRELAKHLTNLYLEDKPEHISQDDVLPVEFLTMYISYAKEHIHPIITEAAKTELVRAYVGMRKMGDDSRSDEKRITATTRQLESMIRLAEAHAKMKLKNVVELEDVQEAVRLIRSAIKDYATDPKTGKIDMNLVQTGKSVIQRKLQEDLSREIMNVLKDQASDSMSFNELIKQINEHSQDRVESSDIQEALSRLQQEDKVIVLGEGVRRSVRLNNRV
T3 sequence (P53091 whole entry): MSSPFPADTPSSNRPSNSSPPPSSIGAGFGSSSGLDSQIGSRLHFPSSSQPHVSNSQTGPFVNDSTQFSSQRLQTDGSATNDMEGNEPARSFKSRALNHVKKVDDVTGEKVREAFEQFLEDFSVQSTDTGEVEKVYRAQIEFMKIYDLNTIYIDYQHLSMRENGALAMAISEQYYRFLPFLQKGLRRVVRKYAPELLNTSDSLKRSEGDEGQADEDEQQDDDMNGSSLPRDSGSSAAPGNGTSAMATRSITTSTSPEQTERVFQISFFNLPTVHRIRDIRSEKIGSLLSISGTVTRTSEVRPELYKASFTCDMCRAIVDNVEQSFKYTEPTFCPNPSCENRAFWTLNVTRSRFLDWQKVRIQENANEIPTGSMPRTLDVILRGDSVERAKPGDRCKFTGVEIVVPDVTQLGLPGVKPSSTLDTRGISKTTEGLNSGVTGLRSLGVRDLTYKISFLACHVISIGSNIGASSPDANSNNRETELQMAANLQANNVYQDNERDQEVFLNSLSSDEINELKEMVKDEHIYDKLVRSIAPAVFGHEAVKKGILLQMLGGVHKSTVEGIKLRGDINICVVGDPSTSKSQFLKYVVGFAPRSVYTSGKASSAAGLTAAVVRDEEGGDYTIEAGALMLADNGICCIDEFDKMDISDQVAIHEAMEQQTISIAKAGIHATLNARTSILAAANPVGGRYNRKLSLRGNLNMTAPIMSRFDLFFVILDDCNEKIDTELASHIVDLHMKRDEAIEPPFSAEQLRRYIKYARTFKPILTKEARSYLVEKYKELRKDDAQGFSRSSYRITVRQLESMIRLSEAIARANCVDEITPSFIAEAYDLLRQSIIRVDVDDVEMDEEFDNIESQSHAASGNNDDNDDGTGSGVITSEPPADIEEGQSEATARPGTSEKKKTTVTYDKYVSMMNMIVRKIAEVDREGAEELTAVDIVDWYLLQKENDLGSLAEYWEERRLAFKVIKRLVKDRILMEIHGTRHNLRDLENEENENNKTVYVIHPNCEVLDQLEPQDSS
T3 sequence (P38132 whole entry): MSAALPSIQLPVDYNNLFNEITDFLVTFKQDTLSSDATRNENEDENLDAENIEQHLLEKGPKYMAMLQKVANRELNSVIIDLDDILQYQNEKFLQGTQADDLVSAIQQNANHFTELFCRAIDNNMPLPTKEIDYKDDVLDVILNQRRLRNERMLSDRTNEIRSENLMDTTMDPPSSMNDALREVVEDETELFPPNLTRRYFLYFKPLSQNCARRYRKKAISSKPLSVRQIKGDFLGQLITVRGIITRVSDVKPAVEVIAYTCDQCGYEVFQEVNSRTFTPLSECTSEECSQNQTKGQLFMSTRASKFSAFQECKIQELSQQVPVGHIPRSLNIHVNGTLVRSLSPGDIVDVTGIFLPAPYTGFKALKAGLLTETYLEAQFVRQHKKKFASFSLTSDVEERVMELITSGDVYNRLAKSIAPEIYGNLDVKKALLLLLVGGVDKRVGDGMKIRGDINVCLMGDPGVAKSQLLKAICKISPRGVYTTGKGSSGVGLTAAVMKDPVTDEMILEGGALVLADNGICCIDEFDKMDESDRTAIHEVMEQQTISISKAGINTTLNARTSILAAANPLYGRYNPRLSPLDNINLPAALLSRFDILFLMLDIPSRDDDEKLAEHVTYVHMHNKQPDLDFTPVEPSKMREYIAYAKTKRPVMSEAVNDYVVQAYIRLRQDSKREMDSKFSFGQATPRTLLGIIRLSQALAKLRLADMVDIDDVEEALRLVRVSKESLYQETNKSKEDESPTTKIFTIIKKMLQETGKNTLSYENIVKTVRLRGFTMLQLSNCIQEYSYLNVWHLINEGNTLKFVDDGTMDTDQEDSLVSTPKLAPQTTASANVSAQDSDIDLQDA

[5] = system: S. cerevisiae ∆erg6 mcm4chaos3 (UPY1056); assay: Yeast growth inhibition, 96-well assay, ∆erg6 mcm4chaos3 strain; assay type: cell-based; conditions: Saccharomyces cerevisiae; growth over 24 h
Wild-type yeast = assay: Yeast growth inhibition, wild-type strain; assay type: cell-based, Saccharomyces cerevisiae; conditions: Figure 4A
Method: S. cerevisiae growth inhibition was quantified using an established 96-well assay. Two isogenic W303 tester strains were used (construction details available upon request): UPY675 (matA, ade2-1, ura3-1, his3-11,15, trp1-1, leu2-3,112, can1-100, bar1::hisG, Δerg6::kanMX) and UPY1056 (isogenic to UPY675 but containing mcm4chaos3). Overnight yeast cultures were grown in YPD medium (1% (w/v) yeast extract/2% (w/v) peptone/2% (w/v) glucose), diluted to 0.05 A600, grown to an A600 of 0.1–0.15, divided into aliquots into a 96-well plate, and then treated with inhibitor titrations. Inhibitors were first diluted in pure DMSO, and then added to wells to a final volume of 100 μl containing 2% (v/v) DMSO. Plates were grown without shaking at 30°C for 24 h. Optical density was quantified at 0 and 24 h with a Bio-tek EL800 Universal Microplate reader. Percent relative growth was determined by calculating the change in optical density over 24 h at each concentration relative to a 2% DMSO control.

pUC19 = assay: DNA intercalation assay (Topo I-relaxed plasmid); assay type: biochemical; conditions: 1 mM inhibitor added after plasmid relaxation (Figure 3C)
Description: To examine this model, we tested our inhibitors in a standard topoisomerase assay. The rationale of this assay is that intercalating compounds will introduce supercoils into a fully relaxed plasmid. Topo I will remove these introduced supercoils, but after quenching and gel electrophoresis the intercalator will diffuse away and produce a detectable compensatory supercoiling increase.

Mcm467 [6] = target: T3, Mcm467; assay: Mcm467 helicase (DNA unwinding) assay; assay type: biochemical; conditions: DNA unwinding, 100 nM hexamer, inhibitor preincubation; […]; read-out: IC50 Mcm467
Mcm2-7 [7] = system: T1, Mcm2-7; assay: ssDNA double filter-binding assay, Mcm2-7; set-up: species or system Saccharomyces cerevisiae; conditions: 1 mM compound, 150 nM helicase

O=C(O)c1cn(C2CC2)c2cc(N3CCNCC3)c(F)cc2c1=O [Ciprofloxacin, ciprofloxacin, reference compound]
effect on ATP hydrolysis of Mcm2-7 (Mcm2-7 [1]): only modest effects
pIC50 ([2]; 100 nM complex, read-out: IC50 TAg helicase activity): 2.40
pIC50 ([2]; 100 nM hexamer, inhibitor preincubation, […], read-out: IC50 T-antigen): 2.40
growth response of ∆erg6 yeast ([3]; Figure 4A): demonstrable growth sensitivity
pIC50 ([3]; Saccharomyces cerevisiae, ∆erg6 strain, growth over 24 h, value (95% CI), read-out: IC50 Yeast): 3.23
effect on ssDNA binding of TAg (SV40 large TAg): only modest effects
effect on ssDNA binding of Mcm467 (Mcm467 [4]): only modest effects
pIC50 [5]: 2.89
growth response of wild-type yeast (Wild-type yeast): resistant
DNA intercalation (pUC19): little or no intercalation
pIC50 (Mcm467 [6]): 2.72
effect on ssDNA binding of Mcm2-7 (Mcm2-7 [7]): only modest effects
